Reference: PubChem BioAssay AID1963858 (Molecular Pharmacology Branch, DTP, NCI, 2024)
pIC50: −log10 of the molar value. Calls of active or inactive are those of the source. Rule for the calls: active = viability on the fitted dose curve at most 10% of control; inactive = the rest.

Tested on: HOP-62 multicell spheroids with HUVEC/MSC, viability
Experiment: Anticancer human tumor HOP-62 cell line growth inhibition [KRAS2];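 for pIC50: viability read after a week of compound exposure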;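 for viability, T/C: viability read after a week of compound exposure; 100% = DMSO vehicle-treated spheroids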
Details: for pIC50: curve of first compound; for viability, T/C: stronger effect = lower value
Summary of the method: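 KRAS-mutant tumor cells were grown as spheroids with HUVEC endothelial cells and human MSCs as stroma. Targeted agents were tested alone and with KRAS pathway inhibitors. Doses started at or near clinical Cmax, or 10 microM, descending half-log.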

[1] = second compound 0.1 µM, first compound 0.0316 µM
[2] = second compound 0.1 µM, first compound 0.1 µM
[3] = second compound 0.1 µM, first compound 0.316 µM
[4] = second compound 0.1 µM, first compound 1 µM
[5] = second compound 0.1 µM, first compound 3.16 µM
[6] = second compound 0.1 µM, first compound 10 µM
[7] = second compound 0.316 µM, first compound 0.0316 µM
[8] = second compound 0.316 µM, first compound 0.1 µM
[9] = second compound 0.316 µM, first compound 0.316 µM
[10] = second compound 0.316 µM, first compound 1 µM
[11] = second compound 0.316 µM, first compound 3.16 µM
[12] = second compound 0.316 µM, first compound 10 µM
[13] = second compound 1 µM, first compound 0.0316 µM
[14] = second compound 1 µM, first compound 0.1 µM
[15] = second compound 1 µM, first compound 0.316 µM
[16] = second compound 1 µM, first compound 1 µM
[17] = second compound 1 µM, first compound 3.16 µM
[18] = second compound 1 µM, first compound 10 µM
[19] = second compound 3.16 µM, first compound 0.0316 µM
[20] = second compound 3.16 µM, first compound 0.1 µM
[21] = second compound 3.16 µM, first compound 0.316 µM
[22] = second compound 3.16 µM, first compound 1 µM
[23] = second compound 3.16 µM, first compound 3.16 µM
[24] = second compound 3.16 µM, first compound 10 µM
[25] = second compound 10 µM, first compound 0.0316 µM
[26] = second compound 10 µM, first compound 0.1 µM
[27] = second compound 10 µM, first compound 0.316 µM
[28] = second compound 10 µM, first compound 1 µM
[29] = second compound 10 µM, first compound 3.16 µM
[30] = second compound 10 µM, first compound 10 µM

Compound | pIC50 (second compound 0.1 µM) | pIC50 (second compound 0.316 µM) | pIC50 (second compound 1 µM) | pIC50 (second compound 3.16 µM) | pIC50 (second compound 10 µM) | viability, T/C [1] | viability, T/C [2] | viability, T/C [3] | viability, T/C [4] | viability, T/C [5] | viability, T/C [6] | viability, T/C [7] | viability, T/C [8] | viability, T/C [9] | viability, T/C [13] | viability, T/C [14] | viability, T/C [19] | viability, T/C [20] | viability, T/C [25] | viability, T/C [26] | also measured
CC1(C)CCC(CN2CCN(c3ccc(C(=O)NS(=O)(=O)c4ccc(NCC5CCOCC5)c([N+](=O)[O-])c4)c(Oc4cnc5[nH]ccc5c4)c3)CC2)=C(c2ccc(Cl)cc2)C1 + CC1OCC2(CCN(c3cnc(Sc4ccnc(N)c4Cl)c(N)n3)CC2)C1N | 5.43 | 5.48 | 5.88 | > 7.50 | > 7.50 | 76.5% | 73% | 70% | 72% | 54.3% | 17.2% | 72.3% | 62.2% | 68.3% | 62.3% | 54.4% | 47.9% | 45% | 37.5% | 32.9% | viability, T/C [10]: 67.6%; viability, T/C [11]: 51.1%; viability, T/C [12]: 12.6%; viability, T/C [15]: 52%; viability, T/C [16]: 50.1%; viability, T/C [17]: 44.6%; viability, T/C [18]: 10.6%; viability, T/C [21]: 36.6%; viability, T/C [22]: 26.7%; viability, T/C [23]: 18.1%; viability, T/C [24]: 10.7%; viability, T/C [27]: 32%; viability, T/C [28]: 26.6%; viability, T/C [29]: 26.5%; viability, T/C [30]: 6.62%
O=C(c1cc(Cc2n[nH]c(=O)c3ccccc23)ccc1F)N1CCN(C(=O)C2CC2)CC1 + COc1cc2nc(C)nc(NC(C)c3cc(N)cc(C(F)(F)F)c3)c2cc1OC1CCOC1 | < 5.00 | 5.15 | < 5.00 | 5.33 | 7.01 | 99.5% | 102% | 106% | 102% | 85.1% | 52.7% | 90.8% | 85.6% | 83.3% | 102% | 98.2% | 77% | 61.9% | 97.5% | 45.3% | viability, T/C [10]: 92.3%; viability, T/C [11]: 67.9%; viability, T/C [12]: 42%; viability, T/C [15]: 93.4%; viability, T/C [16]: 94.6%; viability, T/C [17]: 85.4%; viability, T/C [18]: 50.5%; viability, T/C [21]: 64%; viability, T/C [22]: 69.3%; viability, T/C [23]: 56.3%; viability, T/C [24]: 36.1%; viability, T/C [27]: 55.5%; viability, T/C [28]: 60.9%; viability, T/C [29]: 47%; viability, T/C [30]: 35.1%
CN(C)C/C=C/C(=O)Nc1cc2c(Nc3ccc(F)c(Cl)c3)ncnc2cc1O[C@H]1CCOC1 + CC1OCC2(CCN(c3cnc(Sc4ccnc(N)c4Cl)c(N)n3)CC2)C1N | < 7.00 | < 7.00 | < 7.00 | < 7.00 | > 9.50 | 102% | 91.3% | – | – | – | – | 90.9% | 79.2% | – | 105% | 104% | 56.7% | 47.1% | 49.4% | 46.8% | viability, T/C (second compound 0.1 µM, first compound 0.000316 µM): 112%; viability, T/C (second compound 0.1 µM, first compound 0.001 µM): 109%; viability, T/C (second compound 0.1 µM, first compound 0.00316 µM): 103%; viability, T/C (second compound 0.1 µM, first compound 0.01 µM): 95.4%; viability, T/C (second compound 0.316 µM, first compound 0.000316 µM): 97.6%; viability, T/C (second compound 0.316 µM, first compound 0.001 µM): 93.9%; viability, T/C (second compound 0.316 µM, first compound 0.00316 µM): 104%; viability, T/C (second compound 0.316 µM, first compound 0.01 µM): 86.2%; viability, T/C (second compound 1 µM, first compound 0.000316 µM): 110%; viability, T/C (second compound 1 µM, first compound 0.001 µM): 106%; viability, T/C (second compound 1 µM, first compound 0.00316 µM): 107%; viability, T/C (second compound 1 µM, first compound 0.01 µM): 102%; viability, T/C (second compound 3.16 µM, first compound 0.000316 µM): 60.8%; viability, T/C (second compound 3.16 µM, first compound 0.001 µM): 46.2%; viability, T/C (second compound 3.16 µM, first compound 0.00316 µM): 53.3%; viability, T/C (second compound 3.16 µM, first compound 0.01 µM): 53.3%; outcome (second compound 10 µM, first compound 0.000316 µM): inactive; outcome (second compound 10 µM, first compound 0.001 µM): inactive; viability, T/C (second compound 10 µM, first compound 0.00316 µM): 43.6%; outcome (second compound 10 µM, first compound 0.01 µM): inactive
